We go through 21 compounds from patent US11370776B2, “Sulfonylureas and sulfonylthioureas as NLRP3 inhibitors” (Inflazome Limited, priority 2017, dated 2022).

Structures can show the parent of a compound that is named as a salt.

Assay [1] concerns the target T1, NLRP3 (Homo sapiens, UniProt Q96P20). The assay is described as follows: THP-1 cells pyroptosis assay. It counts as cell-based. Details: Seed THP-1 cells (25,000 cells/well) containing 1.0 μg/ml LPS; host or cells: THP-1 cells, LPS-primed, nigericin-stimulated. The settings on record: for IC50: 1.0 μg/ml LPS, nigericin 5 μM, pyroptosis read with resazurin; for NLRP3 inhibitory activity (in words): THP-1 pyroptosis assay. Here is the method:
The cells were routinely passaged and grown to confluency (˜10^6 cells/ml). On the day of the experiment, THP-1 cells were harvested and resuspended into RPMI medium (without FBS). The cells were then counted and viability (>90%) checked by Trypan blue (Sigma # T8154). […] To this diluted cell solution was added LPS (Sigma # L4524) to give a 1 μg/ml Final Assay Concentration (FAC). 40 μl of the final preparation was aliquoted into each well of a 96-well plate. The plate thus prepared was used for compound screening. THP-1 Cells Pyroptosis Assay The following method step-by-step assay was followed for compound screening. • 1. […] Add 5 μl nigericin (Sigma # N7143) (FAC 5 μM) to all wells • 5. […] At the end of the incubation period, spin plates at 300×g for 3 mins and remove supernatant • 7. Then add 50 μl of resazurin (Sigma # R7017) (FAC 100 μM resazurin in RPMI medium without FBS) and incubate plates for a further 1-2 hrs at 37° C. and 5% CO2 • 8. […] IC50 data is fitted to a non-linear regression equation (log inhibitor vs response-variable slope 4-parameters) [table]
In general terms: The colour change of resazurin is a common sign of viable cells or microbes.

Assay [2] has as its target T1, NLRP3. The assay is described as follows: Human whole blood IL1β release assay. It counts as cell-based. Details: Human whole blood in Li-heparin tubes was obtained from healthy donors; from tissue; host or cells: human whole blood from healthy donors, LPS-primed, nigericin-stimulated. Here is the method:
Human Whole Blood IL1β Release Assay
For systemic delivery, the ability to inhibit NLRP3 when the compounds are present within the bloodstream is of great importance. For this reason, the NLRP3 inhibitory activity of a number of compounds in human whole blood was investigated in accordance with the following protocol.
Human whole blood in Li-heparin tubes was obtained from healthy donors from a volunteer donor panel. • 1. […] Incubate for 3 hrs at 37° C., 5% CO2 • 4. Add 10 μl Nigericin (Sigma # N7143) (10 μM FAC) to all wells • 5. Incubate for 1 hr at 37° C., 5% CO2 • 6. At the end of the incubation period, spin plates at 300×g for 5 mins to pellet cells and remove 20 μl of supernatant and add to 96-well v-bottom plates for IL-1β analysis (note: these plates containing the supernatants can be stored at −80° C. to be analysed at a later date) • 7. IL-1β was measured according to the manufacturer protocol (Perkin Elmer-AlphaLisa IL-1 Kit AL220E-5000) • 8. IC50 data is fitted to a non-linear regression equation (log inhibitor vs response-variable slope 4-parameters)

The mark [3] stands for this setting: THP-1 cells, read-out: THP IC50.
[4] abbreviates: human whole blood, 1 μg/ml LPS, nigericin 10 μM, IL-1β release, read-out: HWB IC50.

T1 sequence (Q96P20 whole entry): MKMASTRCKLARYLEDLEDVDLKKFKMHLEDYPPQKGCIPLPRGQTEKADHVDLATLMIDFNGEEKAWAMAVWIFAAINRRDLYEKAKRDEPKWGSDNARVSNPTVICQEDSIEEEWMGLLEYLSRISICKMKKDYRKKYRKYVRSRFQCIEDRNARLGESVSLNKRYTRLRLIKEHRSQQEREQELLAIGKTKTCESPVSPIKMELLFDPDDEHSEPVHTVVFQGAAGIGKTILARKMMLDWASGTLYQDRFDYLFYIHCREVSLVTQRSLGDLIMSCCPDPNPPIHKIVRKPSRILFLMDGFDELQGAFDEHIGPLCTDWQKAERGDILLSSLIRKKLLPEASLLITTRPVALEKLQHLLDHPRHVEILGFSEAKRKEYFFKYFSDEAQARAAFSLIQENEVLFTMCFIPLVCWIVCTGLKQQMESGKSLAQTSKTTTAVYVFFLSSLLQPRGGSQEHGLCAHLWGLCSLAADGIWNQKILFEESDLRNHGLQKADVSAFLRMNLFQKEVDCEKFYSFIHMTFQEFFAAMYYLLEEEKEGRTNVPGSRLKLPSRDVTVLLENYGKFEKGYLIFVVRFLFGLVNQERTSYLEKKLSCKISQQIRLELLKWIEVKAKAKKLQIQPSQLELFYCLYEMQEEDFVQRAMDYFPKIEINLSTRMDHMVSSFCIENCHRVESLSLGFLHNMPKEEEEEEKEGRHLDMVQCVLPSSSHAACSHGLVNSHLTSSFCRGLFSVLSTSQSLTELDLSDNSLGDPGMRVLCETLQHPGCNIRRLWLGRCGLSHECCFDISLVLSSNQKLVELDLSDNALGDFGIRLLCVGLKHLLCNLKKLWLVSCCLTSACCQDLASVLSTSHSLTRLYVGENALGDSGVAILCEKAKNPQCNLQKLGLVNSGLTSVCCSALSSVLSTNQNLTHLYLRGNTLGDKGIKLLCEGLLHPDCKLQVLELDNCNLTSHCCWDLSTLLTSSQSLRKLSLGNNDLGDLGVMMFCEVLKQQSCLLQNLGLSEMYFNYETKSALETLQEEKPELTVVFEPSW

By IC50 is commonly meant the midpoint of a concentration-inhibition curve. For `CC(C)c1cccc(C(C)C)c1NC(=O)NS(=O)(=O)c1cccnn1` [Example 7, N-((2,6-Diisopropylphenyl)carbamoyl)pyridazine-3-sulfonamide, Sodium Salt], the IC50 is less than 10000 nM on NLRP3 [1] (setting [3]) and less than 2500 nM on NLRP3 [2] (setting [4]).
`COc1nccnc1S(=O)(=O)NC(=O)Nc1c2c(cc3c1CCC3)CCC2` [Example 8, N-((1,2,3,5,6,7-Hexahydro-s-indacen-4-yl)carbamoyl)-3-methoxypyrazine-2-sulfonamide, Potassium Salt]: the IC50 at NLRP3 [1] (setting [3]) was less than 800 nM; on NLRP3 [2] (setting [4]) it was less than 5000 nM.
Turning to `Nc1ncc(S(=O)(=O)NC(=O)Nc2c3c(cc4c2CCC4)CCC3)cn1` [Example 9, 2-Amino-N-((1,2,3,5,6,7-hexahydro-s-indacen-4-yl)carbamoyl) pyrimidine-5-sulfonamide, Potassium Salt], the half-maximal inhibitory concentration (IC50) is less than 2000 nM at NLRP3 [1] (setting [3]) and less than 2500 nM on NLRP3 [2] (setting [4]).
For `O=C(Nc1c2c(cc3c1CCC3)CCC2)NS(=O)(=O)c1cncnc1` [Example 10, N-((1,2,3,5,6,7-Hexahydro-s-indacen-4-yl)carbamoyl) pyrimidine-5-sulfonamide, Potassium Salt], in that order: less than 10000 nM and less than 7500 nM.
For `Cc1ccnc(S(=O)(=O)NC(=O)Nc2c3c(cc4c2CCC4)CCC3)n1` [Example 17, N-((1,2,3,5,6,7-Hexahydro-s-indacen-4-yl)carbamoyl)-4-methyl pyrimidine-2-sulfonamide, Potassium Salt], in that order: less than 1200 nM and less than 5000 nM.
For the compound `Cc1cc(C)nc(S(=O)(=O)NC(=O)Nc2c3c(cc4c2CCC4)CCC3)n1` [Example 18, N-((1,2,3,5,6,7-Hexahydro-s-indacen-4-yl)carbamoyl)-4,6-dimethyl pyrimidine-2-sulfonamide, Potassium Salt], the IC50 on NLRP3 [1] (setting [3]) is less than 800 nM; at NLRP3 [2] (setting [4]) it was less than 2500 nM. Besides, the “NLRP3 inhibitory activity (in words)” value at NLRP3 [1] is “highly active”.
On to `CN(C)c1cncc(S(=O)(=O)NC(=O)Nc2c3c(cc4c2CCC4)CCC3)n1` [Example 27, 6-(Dimethylamino)-N-((1,2,3,5,6,7-hexahydro-s-indacen-4-yl)carbamoyl)pyrazine-2-sulfonamide, Potassium Salt], for which the IC50 is less than 800 nM on NLRP3 [1] (setting [3]) and less than 7500 nM on NLRP3 [2] (setting [4]).
For the compound `CN(C)c1cncc(S(=O)(=O)NC(=O)Nc2c(-c3ccncc3)cc(F)c3c2CCC3)n1` [Example 37, 6-(Dimethylamino)-N-((7-fluoro-5-(pyridin-4-yl)-2,3-dihydro-1H-inden-4-yl)carbamoyl)pyrazine-2-sulfonamide], the 50% inhibitory concentration (IC50) is less than 800 nM at NLRP3 [1] (setting [3]) and less than 2500 nM at NLRP3 [2] (setting [4]).
For `CC(C)c1cc(F)cc(-c2ccnc(C#N)c2)c1NC(=O)NS(=O)(=O)c1cnc(N(C)C)cn1` [Example 38, N-((2-(2-Cyanopyridin-4-yl)-4-fluoro-6-isopropylphenyl)carbamoyl)-5-(dimethylamino)pyrazine-2-sulfonamide], in that order: less than 800 nM and less than 2500 nM.
For `COc1cc(-c2ccc3c(c2NC(=O)NS(=O)(=O)c2cnc(N(C)C)cn2)CCC3)ccn1` [Example 40, 5-(Dimethylamino)-N-((5-(2-methoxypyridin-4-yl)-2,3-dihydro-1H-inden-4-yl)carbamoyl)pyrazine-2-sulfonamide], in that order: less than 800 nM and less than 2500 nM.
For `O=C(Nc1c(-c2ccncc2)cc(F)c2c1CCC2)NS(=O)(=O)c1nccnc1C(F)F` [Example 45, 3-(Difluoromethyl)-N-((7-fluoro-5-(pyridin-4-yl)-2,3-dihydro-1H-inden-4-yl)carbamoyl)pyrazine-2-sulfonamide], at NLRP3 [1] (setting [3]), the IC50 is less than 10000 nM.
On to `Cc1cc(C)nc(S(=O)(=O)NC(=O)Nc2c(-c3ccnc(C#N)c3)cc(F)cc2C(C)C)n1` [Example 46, N-((2-(2-Cyanopyridin-4-yl)-4-fluoro-6-isopropylphenyl)carbamoyl)-4,6-dimethylpyrimidine-2-sulfonamide], for which the IC50 was less than 800 nM on NLRP3 [1] (setting [3]) and less than 2500 nM at NLRP3 [2] (setting [4]). Also, the “NLRP3 inhibitory activity (in words)” value on NLRP3 [1] is on record as “highly active”.
Take `COc1cc(-c2cc(F)cc(C(C)C)c2NC(=O)NS(=O)(=O)c2nc(C)cc(C)n2)ccn1` [Example 47, N-((4-Fluoro-2-isopropyl-6-(2-methoxypyridin-4-yl)phenyl)carbamoyl)-4,6-dimethylpyrimidine-2-sulfonamide]: the IC50 on NLRP3 [1] (setting [3]) is less than 800 nM. The “NLRP3 inhibitory activity (in words)” value on NLRP3 [1] is “highly active”.
On to `COc1cc(-c2ccc3c(c2NC(=O)NS(=O)(=O)c2nc(C)cc(C)n2)CCC3)ccn1` [Example 48, N-((5-(2-Methoxypyridin-4-yl)-2,3-dihydro-1H-inden-4-yl)carbamoyl)-4,6-dimethylpyrimidine-2-sulfonamide], for which the values for the IC50 at NLRP3 [1] (setting [3]) and at NLRP3 [2] (setting [4]) were less than 800 nM and less than 2500 nM, respectively. Further, the “NLRP3 inhibitory activity (in words)” value on NLRP3 [1] is “highly active”.
As for `Cc1cc(C)nc(S(=O)(=O)NC(=O)Nc2c(-c3ccncc3)cc(F)c3c2CCC3)n1` [Example 49, N-((7-Fluoro-5-(pyridin-4-yl)-2,3-dihydro-1H-inden-4-yl)carbamoyl)-4,6-dimethylpyrimidine-2-sulfonamide], the figures for the IC50 on NLRP3 [1] (setting [3]) and on NLRP3 [2] (setting [4]) were less than 800 nM and less than 2500 nM, respectively. Also, the “NLRP3 inhibitory activity (in words)” value on NLRP3 [1] was “highly active”.
`CC(C)c1cc(F)cc(-c2ccnc(C#N)c2)c1NC(=O)NS(=O)(=O)c1cc(N(C)C)cnn1` [Example 50, N-((2-(2-Cyanopyridin-4-yl)-4-fluoro-6-isopropylphenyl)carbamoyl)-5-(dimethylamino) pyridazine-3-sulfonamide]: the IC50 is less than 800 nM on NLRP3 [1] (setting [3]) and less than 2500 nM on NLRP3 [2] (setting [4]).
For the compound `COc1cc(-c2cc(F)cc(C(C)C)c2NC(=O)NS(=O)(=O)c2cc(N(C)C)cnn2)ccn1` [Example 51, 5-(Dimethylamino)-N-((4-fluoro-2-isopropyl-6-(2-methoxypyridin-4-yl)phenyl)carbamoyl) pyridazine-3-sulfonamide], the IC50 on NLRP3 [1] (THP IC50, THP-1 cells) is less than 800 nM; against NLRP3 [2] it was less than 2500 nM.
As for `COc1cc(-c2ccc3c(c2NC(=O)NS(=O)(=O)c2cc(N(C)C)cnn2)CCC3)ccn1` [Example 52, 5-(Dimethylamino)-N-((5-(2-methoxypyridin-4-yl)-2,3-dihydro-1H-inden-4-yl)carbamoyl) pyridazine-3-sulfonamide], the IC50 was less than 800 nM on NLRP3 [1] (setting [3]) and less than 2500 nM on NLRP3 [2] (setting [4]).
As to `CN1CCN(c2cncc(S(=O)(=O)NC(=O)Nc3c4c(cc5c3CCC5)CCC4)n2)CC1` [Example 54, N-((1,2,3,5,6,7-Hexahydro-s-indacen-4-yl)carbamoyl)-6-(4-methylpiperazin-1-yl)pyrazine-2-sulfonamide, Potassium Salt], the IC50 on NLRP3 [1] (setting [3]) was less than 2000 nM.
As for `Cc1cc(N(C)C)nc(S(=O)(=O)NC(=O)Nc2c3c(cc4c2CCC4)CCC3)n1` [Example 56, 4-(Dimethylamino)-N-((1,2,3,5,6,7-hexahydro-s-indacen-4-yl)carbamoyl)-6-methylpyrimidine-2-sulfonamide, potassium salt], on NLRP3 [1] (setting [3]), the IC50 is less than 800 nM. Moreover, the “NLRP3 inhibitory activity (in words)” value on NLRP3 [1] is given as “highly active”.
As to `CC(C)c1cc(S(=O)(=O)NC(=O)Nc2c3c(cc4c2CCC4)CCC3)ccn1` [Example 57, N-((1,2,3,5,6,7-Hexahydro-s-indacen-4-yl)carbamoyl)-2-isopropylpyridine-4-sulfonamide, Sodium Salt], at NLRP3 [1] (setting [3]), the IC50 is less than 800 nM.
